Assay [1] addresses T1, IDO1 (Homo sapiens, UniProt P14902). The assay can be described thus: IDO1 enzymatic assay. Details: His tag (N); made in house; host or cells: E. coli. The conditions noted are these: read-out: Enzyme IC50 IDO1. Type of assay: biochemical. Put shortly: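 Recombinant N-terminally His-tagged IDO1 purified from E. coli (50 nM) was incubated with compound or DMSO and 1.3 mM D-tryptophan, 5 mM L-ascorbic acid, methylene blue and 0.4 mg/mL catalase. The buffer was 50 mM potassium phosphate pH 7.5 with 0.1% BSA, at 24 °C for 1.5 hours. N'-formylkynurenine formation was then read continuously at 321 nm for 1 hour, and activity was taken as the slope. IC50 was calculated from remaining enzyme activity across increasing compound concentrations.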

The target of assay [2] is T2, cellular TDO2 in HEK293-TDO2 cells (Homo sapiens, UniProt P48775).
T2 construct: expressed in transfected cells; host or cells: HEK293 (ATCC), stably transfected
T2 sequence (P48775 whole entry): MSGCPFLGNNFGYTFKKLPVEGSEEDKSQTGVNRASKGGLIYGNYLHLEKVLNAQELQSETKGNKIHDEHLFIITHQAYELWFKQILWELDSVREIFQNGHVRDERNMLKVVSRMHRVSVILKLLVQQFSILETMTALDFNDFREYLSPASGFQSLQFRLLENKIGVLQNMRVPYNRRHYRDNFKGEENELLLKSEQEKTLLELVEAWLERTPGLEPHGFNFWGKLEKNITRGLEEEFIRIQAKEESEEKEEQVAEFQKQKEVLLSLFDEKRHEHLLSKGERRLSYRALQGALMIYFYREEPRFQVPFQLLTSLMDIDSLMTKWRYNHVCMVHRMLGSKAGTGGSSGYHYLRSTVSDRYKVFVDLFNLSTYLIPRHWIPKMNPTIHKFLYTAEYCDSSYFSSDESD
The assay can be described thus: 293-TDO2 cell-based assay (Kyn colorimetric). The conditions noted are these: 48 hours of incubation. Summed up: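 HEK293 cells stably expressing TDO2 (10000/well, phenol red-free DMEM, 10% FBS) were dosed 4 h after plating and incubated 48 h at 37° C. Supernatant Kyn was measured after TCA precipitation by 4-(dimethylamino)benzaldehyde colour at 480 nm. IC50 came from four-parameter logistic fits.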

Assay [3] concerns the target T1, IDO1. The assay is described as follows: Hela cell-based IDO1 assay. The settings on record: Hela cells. Summed up:
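HeLa cells were seeded at 8000 per well in 96-well plates in phenol red-free DMEM with 10% FBS. After 4 hours, DMSO-diluted compound dilutions were added with IFN-γ (final 100 ng/mL) and 0.4 mM L-Trp, and cells were kept 48 hours at 37 °C, 5% CO2. Supernatant was deproteinised with trichloroacetic acid, and kynurenine was measured at 480 nm after adding 2% 4-(dimethylamino)benzaldehyde. Potency came from four-parameter logistic fits in XLfit.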

This note sets out measurements from patent US10882856B2 (BeiGene, Ltd., priority 2017, dated 2021).

Structures are written as SMILES.

T1 sequence (P14902 whole entry): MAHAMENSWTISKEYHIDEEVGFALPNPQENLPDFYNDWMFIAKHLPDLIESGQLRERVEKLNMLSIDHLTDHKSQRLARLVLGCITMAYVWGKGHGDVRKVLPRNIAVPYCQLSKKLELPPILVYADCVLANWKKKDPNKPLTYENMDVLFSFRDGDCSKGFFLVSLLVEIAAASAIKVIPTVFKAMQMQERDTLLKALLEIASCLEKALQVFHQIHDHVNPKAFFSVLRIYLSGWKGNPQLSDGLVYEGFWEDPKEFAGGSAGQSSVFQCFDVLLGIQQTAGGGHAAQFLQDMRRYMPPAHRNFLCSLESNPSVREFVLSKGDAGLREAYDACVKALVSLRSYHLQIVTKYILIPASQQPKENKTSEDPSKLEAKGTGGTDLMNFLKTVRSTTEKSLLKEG

One may read the IC50 as the concentration that gives 50% inhibition. By EC50 is commonly meant the concentration that produces a half-maximal response. A lower EC50 goes with higher potency in that assay. For `O[C@H](c1c(C2CC2)ccc2cncn12)C1CCN(c2ccc(F)cc2)CC1` (single isomer, unassigned) [Example D171a], the IC50 on IDO1 [1] was 15 nM. The figures for the EC50 (in assay [2]; at IDO1 [3]) were above 10000 nM and 30 nM, respectively.

For `O[C@@H](c1c(C2CC2)ccc2cncn12)C1CCN(c2ccc(F)cc2)CC1` (single isomer, unassigned) [Example D171b], at IDO1 [1], the IC50 turned out to be 8260 nM. The results for the EC50 (in assay [2]; at IDO1 [3]) were above 10000 nM and 5740 nM, respectively.

For the compound `O[C@H](c1c(C2CC2)ccc2cncn12)C1CCN(c2cccc(Cl)c2)CC1` (single isomer, unassigned) [Example D173a], the IC50 at IDO1 [1] worked out at 18 nM. The values for the concentration for a half-maximal effect (EC50) (in assay [2]; on IDO1 [3]) were above 10000 nM and 33 nM, respectively.

For `O[C@@H](c1c(C2CC2)ccc2cncn12)C1CCN(c2cccc(Cl)c2)CC1` (single isomer, unassigned) [Example D173b], on IDO1 [1], the IC50 worked out at 2700 nM. For the same compound, the results for the EC50 (in assay [2]; at IDO1 [3]) were above 10000 nM and 7390 nM, respectively.

Regarding `O[C@H](c1c(C2CC2)ccc2cncn12)C1CCN(c2ccc(Cl)cc2)CC1` (single isomer, unassigned) [Example D174a], the IC50 at IDO1 [1] came out at 15 nM. Moreover, the EC50 was above 10000 nM in assay [2] and 80 nM on IDO1 [3].

For `O[C@@H](c1c(C2CC2)ccc2cncn12)C1CCN(c2ccc(Cl)cc2)CC1` (single isomer, unassigned) [Example D174b], the 50% inhibitory concentration (IC50) on IDO1 [1] is above 10000 nM. In addition, the values for the EC50 (in assay [2]; on IDO1 [3]) were above 10000 nM and 5500 nM, respectively.

For the compound `O[C@H](c1c(C2CC2)ccc2cncn12)C1CCN(c2ccc(F)c3ncccc23)CC1` (single isomer, unassigned) [Example D175a], the IC50 at IDO1 [1] was determined as 12 nM. The EC50 in assay [2] is above 10000 nM; at IDO1 [3] it was 7.7 nM.

Consider `O[C@@H](c1c(C2CC2)ccc2cncn12)C1CCN(c2ccc(F)c3ncccc23)CC1` (single isomer, unassigned) [Example D175b], for which, at IDO1 [1], the IC50 was determined as 740 nM. Also, the concentration giving a half-maximal response (EC50) in assay [2] was above 10000 nM; at IDO1 [3], 407 nM.

As to `O[C@@H](c1c(C2CC2)ccc2cncn12)C1CCN(c2ccc(Cl)c3ncccc23)CC1` (single isomer, unassigned) [Example D178b], at IDO1 [1], the IC50 turned out to be 2300 nM. The EC50 in assay [2] is above 10000 nM; on IDO1 [3] it was 1470 nM.

Regarding `O[C@@H](c1cc(Cl)cc2cncn12)[C@H]1CC[C@H](c2ccc(Cl)cc2)CC1` (single isomer, unassigned) [Example E101b], on IDO1 [1], the IC50 came out at 2800 nM. In addition, the EC50 (in assay [2]; at IDO1 [3]) was above 10000 nM each time.

In the case of `O[C@@H](c1cc(Cl)cc2cncn12)[C@H]1CC[C@H](c2cccc3ccccc32)CC1` (single isomer, unassigned) [Example E103b], at IDO1 [1], the IC50 came out at 1400 nM. Moreover, the EC50 (in assay [2]; on IDO1 [3]) was above 10000 nM throughout.

For the compound `O[C@H](c1cc(Cl)cc2cncn12)[C@H]1CC[C@H](c2ccc3ccccc3c2)CC1` (single isomer, unassigned) [Example E104a], on IDO1 [1], the IC50 is 29 nM. For the same compound, the EC50 in assay [2] is above 10000 nM; on IDO1 [3], 3700 nM.

Consider `COc1ccc([C@H]2CC[C@H]([C@@H](O)c3c(C4CC4)ccn4cncc34)CC2)cc1` [Example C101b, (R)-(7-cyclopropylimidazo[1,5-a]pyridin-8-yl)(4-(4-methoxyphenyl)cyclohexyl)methanol], for which, at IDO1 [1], the IC50 stood at 9400 nM. For the same compound, the EC50 (in assay [2]; on IDO1 [3]) was above 10000 nM throughout.

As for `Cc1ccccc1C1CCC(C(O)c2c(C3CC3)ccn3cncc23)CC1` (stereo not drawn) [Example C112, (7-cyclopropylimidazo[1,5-a]pyridin-8-yl)(4-(o-tolyl)cyclohexyl)methanol], at IDO1 [1], the IC50 was 92 nM. The EC50 in assay [2] was above 10000 nM; on IDO1 [3], 285 nM.

As to `COc1ccccc1C1CCC(C(O)c2c(C3CC3)ccn3cncc23)CC1` (stereo not drawn) [Example C113, (7-Cyclopropylimidazo[1,5-a]pyridin-8-yl)(4-(2-methoxyphenyl)cyclohexyl)methan], the IC50 at IDO1 [1] was 55 nM. The EC50 in assay [2] is above 10000 nM; on IDO1 [3], 149 nM.

As for `COc1cccc(C2CCC(C(O)c3c(C4CC4)ccn4cncc34)CC2)c1` (stereo not drawn) [Example C114, (7-cyclopropylimidazo[1,5-a]pyridin-8-yl)(4-(3-methoxyphenyl)cyclohexyl)methanol], the IC50 at IDO1 [1] amounted to 51 nM. The EC50 in assay [2] was above 10000 nM; at IDO1 [3], 195 nM.

Consider `OC(c1c(C2CC2)ccn2cncc12)C1CCC(c2ccccc2C(F)(F)F)CC1` (stereo not drawn) [Example C116], for which the IC50 at IDO1 [1] stood at 160 nM. The figures for the EC50 (in assay [2]; on IDO1 [3]) were above 10000 nM and 1100 nM, respectively.

In the case of `OC(c1c(C2CC2)ccn2cncc12)C1CCC(c2ccc(OC3COC3)cc2)CC1` (stereo not drawn) [Example C117, (7-cyclopropylimidazo[1,5-a]pyridin-8-yl)(4-(4-(oxetan-3-yloxy)phenyl)cyclohexyl)methanol], the IC50 at IDO1 [1] was found to be 35 nM. For the same compound, the EC50 in assay [2] was above 10000 nM; on IDO1 [3], 184 nM.

Regarding `OC(c1c(C2CC2)ccn2cncc12)C1CCC(c2ccc(OC3CCCC3)cc2)CC1` (stereo not drawn) [Example C118, (4-(4-(cyclopentyloxy)phenyl)cyclohexyl)(7-cyclopropylimidazo[1,5-a]pyridin-8-yl)methanol], the IC50 on IDO1 [1] amounted to 120 nM. The concentration giving a half-maximal response (EC50) in assay [2] was above 10000 nM; on IDO1 [3], 259 nM.

Take `OC(c1c(C2CC2)ccn2cncc12)C1CCC(c2ccc(OC3CCOCC3)cc2)CC1` (stereo not drawn) [Example C119, (7-cyclopropylimidazo[1,5-a]pyridin-8-yl)(4-(4-((tetrahydro-2H-pyran-4-yl)oxy)phenyl)cyclohexyl)methanol]: on IDO1 [1], the IC50 was 39 nM. Also, the EC50 is above 10000 nM in assay [2] and 148 nM on IDO1 [3].

For `OC(c1c(C2CC2)ccn2cncc12)C1CCC(c2ccc(C(F)(F)F)nc2)CC1` (stereo not drawn) [Example C120, (7-cyclopropylimidazo[1,5-a]pyridin-8-yl)(4-(6-(trifluoromethyl)pyridin-3-yl)cyclohexyl)methanol], the IC50 at IDO1 [1] was determined as 96 nM. Moreover, the EC50 is above 10000 nM in assay [2] and 2180 nM on IDO1 [3].

On to `OC(c1c(C2CC2)ccn2cncc12)C1CCC(c2cccc3ccccc23)CC1` (stereo not drawn) [Example C121, (7-cyclopropylimidazo[1,5-a]pyridin-8-yl)(4-(naphthalen-1-yl)cyclohexyl)methanol], for which the IC50 at IDO1 [1] stood at 94 nM. Moreover, the results for the EC50 (in assay [2]; on IDO1 [3]) were above 10000 nM and 125 nM, respectively.

`OC(c1c(C2CC2)ccn2cncc12)C1CCC(c2ccc3ccccc3c2)CC1` (stereo not drawn) [Example C122, (7-cyclopropylimidazo[1,5-a]pyridin-8-yl)(4-(naphthalen-2-yl)cyclohexyl)methanol]: the IC50 on IDO1 [1] was 74 nM. For the same compound, the figures for the EC50 (in assay [2]; at IDO1 [3]) were above 10000 nM and 382 nM, respectively.

For the compound `OC(c1c(C2CC2)ccn2cncc12)C1CCC(c2ccc3c(c2)OCO3)CC1` (stereo not drawn) [Example C123, (4-(benzo[dl][1,3]dioxol-5-yl)cyclohexyl)(7-cyclopropylimidazo[1,5-a]pyridin-8-yl) methanol], the IC50 on IDO1 [1] is 15 nM. Further, the EC50 in assay [2] was above 10000 nM; at IDO1 [3], 372 nM.

Consider `NC(=O)c1ccc([C@H]2CC[C@H]([C@H](O)c3c(C4CC4)ccn4cncc34)CC2)cc1` [Example C124], for which, at IDO1 [1], the IC50 was 56 nM. Moreover, the EC50 in assay [2] was above 10000 nM; on IDO1 [3], 236 nM.

With `OC(c1c(C2CC2)ccn2cncc12)C1CCC(c2cccc3ncccc23)CC1` (stereo not drawn) [Example C126, (7-cyclopropylimidazo[1,5-a]pyridin-8-yl)(4-(quinolin-5-yl)cyclohexyl)methanol], the IC50 at IDO1 [1] is 29 nM. Further, the EC50 in assay [2] is above 10000 nM; at IDO1 [3], 30 nM.

Consider `OC(c1c(C2CC2)ccn2cncc12)C1CCC(c2ccnc3ccc(F)cc23)CC1` (stereo not drawn) [Example C128, (7-cyclopropylimidazo[1,5-a]pyridin-8-yl)(4-(6-fluoroquinolin-4-yl)cyclohexyl)methanol], for which, on IDO1 [1], the IC50 worked out at 39 nM. Besides, the EC50 in assay [2] is above 10000 nM; on IDO1 [3], 51 nM.

Take `OC(c1c(C2CC2)ccn2cncc12)C1CCC(c2ccnc3c(F)cccc23)CC1` (stereo not drawn) [Example C129, (7-cyclopropylimidazo[1,5-a]pyridin-8-yl)(4-(8-fluoroquinolin-4-yl)cyclohexyl)methanol]: the IC50 at IDO1 [1] stood at 33 nM. Besides, the figures for the EC50 (in assay [2]; on IDO1 [3]) were above 10000 nM and 51 nM, respectively.

Turning to `OC(c1c(C2CC2)ccn2cncc12)C1CCC(c2ccnc3ccccc23)CC1` (stereo not drawn) [Example C130, (7-cyclopropylimidazo[1,5-a]pyridin-8-yl)(4-(quinolin-4-yl)cyclohexyl)methanol], the IC50 at IDO1 [1] is 36 nM. Further, the values for the concentration for a half-maximal effect (EC50) (in assay [2]; at IDO1 [3]) were above 10000 nM and 93 nM, respectively.

Take `OC(c1c(C2CC2)ccn2cncc12)C1CCC(c2ccc(F)c(Cl)c2)CC1` (stereo not drawn) [Example C132, (4-(3-chloro-4-fluorophenyl)cyclohexyl)(7-cyclopropylimidazo[1,5-a]pyridin-8-yl)methanol]: the IC50 at IDO1 [1] worked out at 120 nM. The EC50 in assay [2] was above 10000 nM; at IDO1 [3], 384 nM.
